Measurements taken from article PMC7220906, “Target-responsive vasoactive probes for ultrasensitive molecular imaging” (Nature Communications, 2020).
Where two headings read alike, the source gives them in different places. Residues, ends and D or L forms follow the SMILES beside them. *: point of attachment. Biotin = O=C1N[C@H]2[C@H](CS[C@H]2CCCCC(=O)*)N1; X2 = O=C(CCN1C(=O)CC(*)C1=O)NCCc1ccc(O)c(O)c1; X1 = C[C@@H]1NC(=O)N[C@@H]1CCCCCC(=O)*

Legend:
PACAP receptor PAC1 = target: T1, PACAP receptor PAC1 (Homo sapiens, UniProt P41586); assay: PAC1 luminescence (GloSensor cAMP) assay of PACAP derivatives; format: cell-based
T1 construct: expressed in transfected cells; host or cells: CHO K1 cells stably transduced by lentivirus with PAC1 and the Glo22F cAMP luciferase
T1 sequence (P41586 21-468): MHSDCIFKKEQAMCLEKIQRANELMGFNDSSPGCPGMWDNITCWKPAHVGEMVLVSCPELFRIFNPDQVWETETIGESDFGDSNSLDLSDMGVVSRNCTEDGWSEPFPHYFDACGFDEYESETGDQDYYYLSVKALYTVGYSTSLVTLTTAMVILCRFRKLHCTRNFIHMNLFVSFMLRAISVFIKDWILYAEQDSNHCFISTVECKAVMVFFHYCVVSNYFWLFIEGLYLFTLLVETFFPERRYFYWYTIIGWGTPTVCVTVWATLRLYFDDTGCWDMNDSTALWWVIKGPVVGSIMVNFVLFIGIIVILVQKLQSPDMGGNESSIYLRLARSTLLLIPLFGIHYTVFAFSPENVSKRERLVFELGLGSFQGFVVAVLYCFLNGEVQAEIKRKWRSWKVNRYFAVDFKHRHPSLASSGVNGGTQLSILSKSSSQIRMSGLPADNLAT
Experimental: (Promega, Madison, WI). We generated a CHO K1 cell line expressing the required cAMP-dependent luciferase and PAC1 receptor. 24 h before the assay, 2500 cells per well were seeded in 100 µl F10 with 10% FBS in white opaque clear-bottom 96-well plates (Costar, Coppell, TX). […] Luminescence was measured for 30 min using a microtiter plate reader and evaluated after the signal reached a plateau (15 min).
Biotin (BT) and desthiobiotin (dBT) were incorporated as lysine sidechain-derivatized monomers in the synthesis; polyethylene glycol (PEG)-linked BT was incorporated as a BT-functionalized glutamine monomer spaced using a linker of four PEG units. […] Further BT-AVATar activation studies were performed using biotinylated bovine serum albumin (BSA, Sigma-Aldrich) containing 100 nM BT or biotinylated cells containing 150 nM BT (preparation see below) as analytes.
Addition of the maleimido functional group was achieved by reacting DA with N-succinimidyl 3-maleimidopropionate in anhydrous dimethylformamide and further purification using HPLC. The resulting functionalized neurotransmitter, DA-Mal, was further characterized by standard methods (Supplementary Methods and Supplementary Figs. 8 and 9). […] Dopamine sensitivity of the DA-AVATar was examined using freshly prepared DA (Sigma-Aldrich) stocks in PBS pH 7.4.

streptavidin (SA) = test system: streptavidin (SA); design: method as in 2 sources, ref 21 = [21]; PMID 9601024; doi:10.1021/bi9803123; 21. Klumb LA Chu V Stayton PS Energetic roles of hydrogen bonds at the ureido oxygen binding pocket in the streptavidin−biotin complex Biochemistry 1998 37 7657 7663 10.1021/bi9803123 9601024 ||| ref 22 = [22]; PMID 7041971; doi:10.1021/bi00534a024; 22. Hofmann K Titus G Montibeller JA Finn FM Avidin binding of carboxyl-substituted biotin and analogues Biochemistry 1982 21 978 984 10.1021/bi00534a024 7041971; conditions: cited from earlier work
[1] = CHO K1 cells expressing PAC1 and cAMP-dependent luciferase, no streptavidin, mean ± SD of duplicates, read-out: EC50 for PAC1 receptor activation in the absence of SA

CC[C@H](C)[C@H](NC(=O)CNC(=O)[C@H](CC(=O)O)NC(=O)[C@H](CO)NC(=O)[C@@H](N)Cc1c[nH]cn1)C(=O)N[C@@H](Cc1ccccc1)C(=O)N[C@H](C(=O)N[C@@H](CC(=O)O)C(=O)N[C@@H](CO)C(=O)N[C@@H](CCCCNC(=O)CCCCC[C@H]1NC(=O)N[C@H]1C)C(=O)N[C@@H](CO)C(=O)N[C@@H](CCCNC(=N)N)C(=O)N[C@@H](Cc1ccc(O)cc1)C(=O)N[C@@H](CCCNC(=N)N)C(=O)N[C@@H](CCCCN)C(=O)N[C@@H](CCC(N)=O)C(=O)N[C@@H](CCSC)C(=O)N[C@@H](C)C(=O)N[C@H](C(=O)N[C@@H](CCCCNC(=O)CCCCC[C@H]1NC(=O)N[C@H]1C)C(=O)N[C@@H](CCCCN)C(=O)N[C@@H](Cc1ccc(O)cc1)C(=O)N[C@@H](CC(C)C)C(=O)N[C@@H](C)C(=O)N[C@@H](C)C(=O)N[C@H](C(=O)N[C@@H](CC(C)C)C(=O)NCC(=O)N[C@@H](CCCCN)C(=O)N[C@@H](CCCNC(=N)N)C(=O)N[C@@H](Cc1ccc(O)cc1)C(=O)N[C@@H](CCCCNC(=O)CCCCC[C@H]1NC(=O)N[C@H]1C)C(=O)N[C@@H](CCC(N)=O)C(=O)N[C@@H](CCCNC(=N)N)C(=O)N[C@H](C(=O)N[C@@H](CCCCN)C(=O)N[C@@H](CC(N)=O)C(=O)N[C@@H](CCCCN)C(N)=O)C(C)C)C(C)C)C(C)C)[C@@H](C)O [PACAP-10,20,32-dBT] (H-HSDGIFTDSK(X1)SRYRKQMAVK(X1)KYLAAVLGKRYK(X1)QRVKNK-NH2)
EC50 (PACAP receptor PAC1; [1]): 0.13 ± 0.002 nM

CC[C@H](C)[C@H](NC(=O)CNC(=O)[C@H](CC(=O)O)NC(=O)[C@H](CO)NC(=O)[C@@H](N)Cc1c[nH]cn1)C(=O)N[C@@H](Cc1ccccc1)C(=O)N[C@H](C(=O)N[C@@H](CC(=O)O)C(=O)N[C@@H](CO)C(=O)N[C@@H](CCCCNC(=O)CCCC[C@@H]1SC[C@@H]2NC(=O)N[C@@H]21)C(=O)N[C@@H](CO)C(=O)N[C@@H](CCCNC(=N)N)C(=O)N[C@@H](Cc1ccc(O)cc1)C(=O)N[C@@H](CCCNC(=N)N)C(=O)N[C@@H](CCCCN)C(=O)N[C@@H](CCC(N)=O)C(=O)N[C@@H](CCSC)C(=O)N[C@@H](C)C(=O)N[C@H](C(=O)N[C@@H](CCCCNC(=O)CCCC[C@@H]1SC[C@@H]2NC(=O)N[C@@H]21)C(=O)N[C@@H](CCCCN)C(=O)N[C@@H](Cc1ccc(O)cc1)C(=O)N[C@@H](CC(C)C)C(=O)N[C@@H](C)C(=O)N[C@@H](C)C(=O)N[C@H](C(=O)N[C@@H](CC(C)C)C(=O)NCC(=O)N[C@@H](CCCCN)C(=O)N[C@@H](CCCNC(=N)N)C(=O)N[C@@H](Cc1ccc(O)cc1)C(=O)N[C@@H](CCCCN)C(=O)N[C@@H](CCC(N)=O)C(=O)N[C@@H](CCCNC(=N)N)C(=O)N[C@H](C(=O)N[C@@H](CCCCN)C(=O)N[C@@H](CC(N)=O)C(=O)N[C@@H](CCCCN)C(N)=O)C(C)C)C(C)C)C(C)C)[C@@H](C)O [PACAP-10,20-BT] (H-HSDGIFTDSK(Biotin)SRYRKQMAVK(Biotin)KYLAAVLGKRYKQRVKNK-NH2)
EC50 (PACAP receptor PAC1; [1]): 0.061 ± 0.007 nM

CC[C@H](C)[C@H](NC(=O)CNC(=O)[C@H](CC(=O)O)NC(=O)[C@H](CO)NC(=O)[C@@H](N)Cc1c[nH]cn1)C(=O)N[C@@H](Cc1ccccc1)C(=O)N[C@H](C(=O)N[C@@H](CC(=O)O)C(=O)N[C@@H](CO)C(=O)N[C@@H](CSC1CC(=O)N(CCC(=O)NCCc2ccc(O)c(O)c2)C1=O)C(=O)N[C@@H](CO)C(=O)N[C@@H](CCCNC(=N)N)C(=O)N[C@@H](Cc1ccc(O)cc1)C(=O)N[C@@H](CCCNC(=N)N)C(=O)N[C@@H](CCCCN)C(=O)N[C@@H](CCC(N)=O)C(=O)N[C@@H](CCSC)C(=O)N[C@@H](C)C(=O)N[C@H](C(=O)N[C@@H](CSC1CC(=O)N(CCC(=O)NCCc2ccc(O)c(O)c2)C1=O)C(=O)N[C@@H](CCCCN)C(=O)N[C@@H](Cc1ccc(O)cc1)C(=O)N[C@@H](CC(C)C)C(=O)N[C@@H](C)C(=O)N[C@@H](C)C(=O)N[C@H](C(=O)N[C@@H](CC(C)C)C(=O)NCC(=O)N[C@@H](CCCCN)C(=O)N[C@@H](CCCNC(=N)N)C(=O)N[C@@H](Cc1ccc(O)cc1)C(=O)N[C@@H](CCCCN)C(=O)N[C@@H](CCC(N)=O)C(=O)N[C@@H](CCCNC(=N)N)C(=O)N[C@H](C(=O)N[C@@H](CCCCN)C(=O)N[C@@H](CC(N)=O)C(=O)N[C@@H](CCCCN)C(N)=O)C(C)C)C(C)C)C(C)C)[C@@H](C)O (some centres unmarked) [PACAP-10,20-DA] (H-HSDGIFTDSC(X2)SRYRKQMAVC(X2)KYLAAVLGKRYKQRVKNK-NH2)
EC50 (PACAP receptor PAC1; DA conjugate, no IgG, SD of duplicates, read-out: EC50 for PAC1 receptor activation): 2.5 ± 0.6 nM

O=C(O)CCCC[C@@H]1SC[C@@H]2NC(=O)N[C@@H]21 [biotin]
characteristic dissociation time of SA from biotin (streptavidin (SA)): ~ 7 h

C[C@@H]1NC(=O)N[C@@H]1CCCCCC(=O)O [desthiobiotin]
affinity for SA relative to biotin (lower) (streptavidin (SA)): 10,000 fold
